# Counter-ions that a name gives are not always drawn.
# Experiments:
# Format in all cases: cell-based
# [1] = target: T1, human TRPM8 (Homo sapiens, UniProt Q7Z2W7); assay: In vitro human TRPM8 fluorescence calcium flux assay (recombinant CHO cells, Fluo4-AM, FDSS6000); conditions: recombinant CHO cells expressing human TRPM8; menthol-related EC50, normalized to 100 μM menthol
# T1 construct: expressed in transfected cells; host or cells: CHO (p658 mammalian expression vector)
# In short: (§1)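 CHO cells stably expressing pig or human TRPM8, loaded with 2 μM Fluo4-AM in HBSS/20 mM HEPES/0.1% BSA/2.5 mM probenecid for 1 h at RT. Intracellular calcium read kinetically for 3 min after compound addition. EC50 from sixteen-point curves, normalized to 100 μM menthol maximal response.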
# [2] = target: T2, pig TRPM8 (Sus scrofa, UniProt F1SM15); assay: In vitro pig TRPM8 fluorescence calcium flux assay (recombinant CHO cells, Fluo4-AM, FDSS6000); conditions: recombinant CHO cells expressing pig TRPM8; menthol-related EC50, normalized to 100 μM menthol
# T2 construct: expressed in transfected cells; host or cells: CHO (pcDNA5/FRT/TO vector; hygromycin B and blasticidin selection)
# T2 sequence (F1SM15 1-1104): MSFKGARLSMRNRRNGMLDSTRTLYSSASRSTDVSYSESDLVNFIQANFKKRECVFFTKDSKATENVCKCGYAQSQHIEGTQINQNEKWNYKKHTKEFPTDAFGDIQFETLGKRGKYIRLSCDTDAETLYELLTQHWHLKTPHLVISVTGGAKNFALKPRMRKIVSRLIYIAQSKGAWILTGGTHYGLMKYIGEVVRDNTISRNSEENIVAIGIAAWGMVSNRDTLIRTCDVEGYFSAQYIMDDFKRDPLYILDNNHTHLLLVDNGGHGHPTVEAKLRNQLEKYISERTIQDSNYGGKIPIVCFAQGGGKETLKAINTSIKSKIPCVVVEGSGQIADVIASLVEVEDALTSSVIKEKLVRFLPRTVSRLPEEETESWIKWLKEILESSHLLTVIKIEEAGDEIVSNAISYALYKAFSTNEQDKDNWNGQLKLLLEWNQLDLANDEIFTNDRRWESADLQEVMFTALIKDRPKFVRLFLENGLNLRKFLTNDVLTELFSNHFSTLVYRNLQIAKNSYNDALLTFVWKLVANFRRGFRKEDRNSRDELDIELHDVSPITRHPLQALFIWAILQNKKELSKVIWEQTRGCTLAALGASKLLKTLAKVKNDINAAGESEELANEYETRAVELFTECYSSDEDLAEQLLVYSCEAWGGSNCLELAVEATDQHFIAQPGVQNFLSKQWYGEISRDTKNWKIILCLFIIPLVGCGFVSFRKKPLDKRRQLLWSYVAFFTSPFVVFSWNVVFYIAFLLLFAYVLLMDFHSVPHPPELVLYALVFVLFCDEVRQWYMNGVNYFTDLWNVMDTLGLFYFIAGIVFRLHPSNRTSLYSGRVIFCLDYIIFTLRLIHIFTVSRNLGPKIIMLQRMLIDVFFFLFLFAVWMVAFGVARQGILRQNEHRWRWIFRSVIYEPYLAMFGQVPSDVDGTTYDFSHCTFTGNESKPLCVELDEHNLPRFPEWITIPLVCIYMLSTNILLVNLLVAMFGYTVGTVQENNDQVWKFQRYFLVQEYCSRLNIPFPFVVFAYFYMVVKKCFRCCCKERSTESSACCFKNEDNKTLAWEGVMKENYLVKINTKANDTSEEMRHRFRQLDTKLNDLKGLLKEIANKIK
# In short: as §1
# [3] = target: T1, human TRPM8; assay: In vitro human TRPM8 automated patch-clamp assay (SyncroPatch 384PE, CHO cells); conditions: CHO cells expressing human TRPM8, 28° C.
# Procedure: (§2) In Vitro Pig and Human TRPM8 Automated Patch-Clamp Assays
# (§3) Automated whole-cell recordings of compound effects were performed on the SyncroPatch 384PE (Nanion Technologies, Munich, Germany) incorporated into a Biomek FX pipetting robot (Beckman Coulter, Jersey City, NJ, USA) using the same engineered CHO cell lines expressing human or pig TRPM8 channels. Data acquisition and analysis were performed with the proprietary software PatchControl 384 and DataControl 384, respectively (Nanion Technologies, Munich, Germany). All recordings were carried out using planar borosilicate glass patch clamp chips in a 384-microtiter plate format with patch hole resistances of 2-4 MO. For recordings, standard intracellular solution was used containing (in mM): 130 KF, 4 NaCl, 1 MgCl2, 0.5 CaCl2, 10 HEPES and 10 EGTA/KOH (pH 7.2) and standard extracellular solution contained in mM: 150 NaCl, 4 KCl, 0.5 CaCl2, 1 MgCl2 and 10 HEPES (pH 7.3).
# (§4) Prior to the electrophysiological measurements, cells were harvested using Accutase (GIBCO, Fisher Scientific) and resuspended in warmed extracellular solution. The cell suspension was kept in the dedicated cell reservoir at 28° C. at a 1 million/ml cell density and shaken at 500 rounds per min (rpm). Experiments were performed at 28° C. throughout. Cells were distributed in high resistance 4-holes-per-well Nanion chips where they were caught on the patch holes by application of a −80 mbar pressure. The cell membrane was ruptured to obtain the whole-cell configuration with a pressure pulse of −250 mbar for 2 seconds. Voltage protocols were constructed using PatchControl 384. The cells were held at a holding potential of −60 mV and TRPM8 currents were recorded using a ramp protocol from −80 to +80 mV every 5 seconds before and after compound addition. Resulting currents were recorded at both −80 and +80 mV and current kinetics were exported and analyzed. From each plate, control wells with 200 μM menthol were recorded to validate the assay. One concentration of compound was applied to each of the other wells. For each concentration, compound response was determined by subtracting the baseline current recorded before compound addition from the maximum peak elicited currents obtained after compound addition. Then, each compound response was normalized to control condition without compound and maximum current (Emax) obtained for each compound. Nanion DataControl 384 software plotted current response for each compound concentration and was able to calculate an EC50 value for each active compound.
# [4] = target: T2, pig TRPM8; assay: In vitro pig TRPM8 automated patch-clamp assay (SyncroPatch 384PE, CHO cells); conditions: CHO cells expressing pig TRPM8, 28° C.
# Procedure: as §2, §3, §4
# T1 sequence (Q7Z2W7 whole entry): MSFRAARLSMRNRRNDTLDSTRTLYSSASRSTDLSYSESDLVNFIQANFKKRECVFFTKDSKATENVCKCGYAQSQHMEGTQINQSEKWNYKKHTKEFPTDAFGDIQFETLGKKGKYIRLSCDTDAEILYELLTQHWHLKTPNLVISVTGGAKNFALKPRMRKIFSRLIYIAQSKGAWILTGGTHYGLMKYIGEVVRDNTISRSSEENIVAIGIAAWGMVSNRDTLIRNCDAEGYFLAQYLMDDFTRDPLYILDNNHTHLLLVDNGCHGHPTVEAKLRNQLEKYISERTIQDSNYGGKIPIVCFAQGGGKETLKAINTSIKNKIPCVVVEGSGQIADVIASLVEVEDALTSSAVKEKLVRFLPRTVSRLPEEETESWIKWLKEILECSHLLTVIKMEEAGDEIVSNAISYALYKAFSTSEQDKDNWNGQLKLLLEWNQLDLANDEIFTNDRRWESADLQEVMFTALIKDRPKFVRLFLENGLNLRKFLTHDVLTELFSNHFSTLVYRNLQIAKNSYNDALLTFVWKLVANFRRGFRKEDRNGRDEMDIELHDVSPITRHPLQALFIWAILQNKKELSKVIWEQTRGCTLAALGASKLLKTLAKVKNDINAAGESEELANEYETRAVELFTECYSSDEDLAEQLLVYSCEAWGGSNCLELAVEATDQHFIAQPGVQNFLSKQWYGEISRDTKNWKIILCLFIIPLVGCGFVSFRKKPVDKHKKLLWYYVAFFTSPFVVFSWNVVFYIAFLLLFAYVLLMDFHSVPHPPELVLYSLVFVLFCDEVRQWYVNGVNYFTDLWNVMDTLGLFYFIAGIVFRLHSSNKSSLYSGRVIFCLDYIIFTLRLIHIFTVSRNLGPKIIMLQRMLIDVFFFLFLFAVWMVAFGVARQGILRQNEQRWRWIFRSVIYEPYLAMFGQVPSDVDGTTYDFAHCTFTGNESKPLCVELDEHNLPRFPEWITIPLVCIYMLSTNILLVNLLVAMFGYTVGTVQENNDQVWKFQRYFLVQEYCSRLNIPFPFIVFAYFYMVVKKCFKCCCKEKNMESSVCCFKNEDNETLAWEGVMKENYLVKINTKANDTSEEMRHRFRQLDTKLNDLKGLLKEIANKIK
EC50 [1] [nM],EC50 [2] [nM],EC50 [3] [nM],EC50 [4] [nM],SMILES
49.3,67.8,2800,2000,"COC(=O)CCc1ccccc1CCNC(=O)[C@]1(O)C[C@H](C)CC[C@H]1C(C)C [Example 93, methyl 3-(2-(2-((1S,2S,5R)-1-hydroxy-2-isopropyl-5-methylcyclohexane-1-carboxamido)ethyl)phenyl)propanoate]"
42.3,15.2,5900,7740,"CC(C)[C@@H]1CC[C@@H](C)C[C@@]1(O)C(=O)NCCc1ccccn1 [Example 125, (1S,2S,5R)-1-hydroxy-2-isopropyl-5-methyl-N-[2-(2-pyridyl)ethyl]cyclohexanecarboxamide]"
23.8,17.4,1200,3500,"COc1ccccc1CCNC(=O)[C@]1(O)C[C@H](C)CC[C@H]1C(C)C [Example 155, (1S,2S,5R)-1-hydroxy-2-isopropyl-N-[2-(2-methoxyphenyl)ethyl]-5-methyl-cyclohexanecarboxamide]"
97,80,4590,3210,"COC(=O)c1cccc(C(O)CNC(=O)[C@]2(O)C[C@H](C)CC[C@H]2C(C)C)c1 (stereo partly drawn) [Example 34, methyl 3-(1-hydroxy-2-((1S,2S,5R)-1-hydroxy-2-isopropyl-5-methylcyclohexane-1-carboxamido)ethyl)benzoate]"
4,8,690,1120,"CC(C)[C@@H]1CC[C@@H](C)C[C@@]1(O)C(=O)NCC(C(=O)OCC(C)(C)N)c1ccccc1 (stereo partly drawn) [Example 73, 2-amino-2-methylpropyl 3-((1S,2S,5R)-1-hydroxy-2-isopropyl-5-methylcyclohexane-1-carboxamido)-2-phenylpropanoate hydrochloride]"
1,2,183,862,"CC(C)[C@@H]1CC[C@@H](C)C[C@@]1(O)C(=O)NCC(C(=O)OCCN)c1ccccc1 (stereo partly drawn) [Example 71, 2-aminoethyl 3-((1S,2S,5R)-1-hydroxy-2-isopropyl-5-methylcyclohexane-1-carboxamido)-2-phenylpropanoate hydrochloride]"
7.1,19.9,1700,1520,"COC(=O)[C@@H](N)Cc1ccccc1CCNC(=O)[C@]1(O)C[C@H](C)CC[C@H]1C(C)C [Example 19, methyl (S)-2-amino-3-(2-(2-((1S,2S,5R)-1-hydroxy-2-isopropyl-5-methylcyclohexane-1-carboxamido)ethyl)phenyl)propanoate]"
1.3,0.7,950,478,"CC(C)[C@@H]1CC[C@@H](C)C[C@@]1(O)C(=O)NCC(F)c1ccccc1 (stereo partly drawn) [Example 5, (1S,2S,5R)—N-(2-fluoro-2-phenylethyl)-1-hydroxy-2-isopropyl-5-methylcyclohexane-1-carboxamide]"
5.6,7.3,1100,985,"CC(C)[C@@H]1CC[C@@H](C)C[C@@]1(O)C(=O)NCC(=O)c1ccc(O)cc1 [Example 143, (1S,2S,5R)-1-hydroxy-N-[2-(4-hydroxyphenyl)-2-oxo-ethyl]-2-isopropyl-5-methyl-cyclohexanecarboxamide]"
3,1.2,1700,1010,"CC(C)[C@@H]1CC[C@@H](C)C[C@@]1(O)C(=O)NC[C@@H](F)c1ccccc1 [Example 180, (1S,2S,5R)—N-((2S)-2-fluoro-2-phenylethyl)-1-hydroxy-2-isopropyl-5-methylcyclohexane-1-carboxamide]"
2.9,2.7,230,515,"CC(C)[C@@H]1CC[C@@H](C)C[C@@]1(O)C(=O)NCC1(O)CCc2ccc(Cl)cc21 (stereo partly drawn) [Example 145, (1S,2S,5R)-N-[(6-chloro-1-hydroxy-indan-1-yl)methyl]-1-hydroxy-2-isopropyl-5-methyl-cyclohexanecarboxamide]"
3.7,3.8,66,52,"CC(C)[C@@H]1CC[C@@H](C)C[C@@]1(O)C(=O)NCC(NC(=O)[C@H](C)N)c1ccccc1 (single isomer, unassigned) [Example 182]"
0.3,0.5,72,237,"CC(C)[C@@H]1CC[C@@H](C)C[C@@]1(O)C(=O)NCCc1ccccc1OCCN [Example 6, (1S,2S,5R)—N-(2-(2-aminoethoxy)phenethyl)-1-hydroxy-2-isopropyl-5-methylcyclohexane-1-carboxamide]"
2.4,1.8,470,276,"CC(C)[C@@H]1CC[C@@H](C)C[C@@]1(O)C(=O)NCC(=O)c1ccccc1O [Example 38, (1S,2S,5R)-1-hydroxy-N-(2-(2-hydroxyphenyl)-2-oxoethyl)-2-isopropyl-5-methylcyclohexane-1-carboxamide]"
47,36,1880,3810,"COC(=O)COc1ccccc1C(O)CNC(=O)[C@]1(O)C[C@H](C)CC[C@H]1C(C)C (stereo partly drawn) [Example 36, methyl 2-(2-(1-hydroxy-2-((1S,2S,5R)-1-hydroxy-2-isopropyl-5-methylcyclohexane-1-carboxamido)ethyl)phenoxy)acetate]"
12.4,3.8,910,921,"CC(C)[C@@H]1CC[C@@H](C)C[C@@]1(O)C(=O)NC[C@@H](O)c1cccc(O)c1 [Example 42, (1S,2S,5R)-1-hydroxy-N-((2S)-hydroxy-2-(3-hydroxyphenyl)ethyl)-2-isopropyl-5-methylcyclohexane-1-carboxamide]"
17,11,3100,2360,"CC(C)[C@@H]1CC[C@@H](C)C[C@@]1(O)C(=O)NCC(O)c1cccc(CO)c1 (stereo partly drawn) [Example 37, (1S,2S,5R)-1-hydroxy-N-(2-hydroxy-2-(3-(hydroxymethyl)phenyl)ethyl)-2-isopropyl-5-methylcyclohexane-1-carboxamide]"
17.8,4.5,2500,2330,"CC(C)[C@@H]1CC[C@@H](C)C[C@@]1(O)C(=O)NCCc1ccc(O)cc1 [Example 117, (1S,2S,5R)-1-hydroxy-N-[2-(4-hydroxyphenyl)ethyl]-2-isopropyl-5-methyl-cyclohexanecarboxamide]"
1.2,0.7,450,596,"CC(C)[C@@H]1CC[C@@H](C)C[C@@]1(O)C(=O)NCC(=O)c1ccccc1 [Example 2, (1S,2S,5R)-1-hydroxy-2-isopropyl-5-methyl-N-(2-oxo-2-phenylethyl)cyclohexane-1-carboxamide]"
34.9,10.6,1800,711,"CC(C)[C@@H]1CC[C@@H](C)C[C@@]1(O)C(=O)NC[C@@H](O)c1cccc(CO)c1 [Example 44, (1S,2S,5R)-1-hydroxy-N-((2S)-hydroxy-2-(3-(hydroxymethyl)phenyl)ethyl)-2-isopropyl-5-methylcyclohexane-1-carboxamide]"

# Reference: patent US20240124408A1 (Sanofi, priority 2020, published 2024)
